Measured values taken from article PMC9516332 (Frontiers in Oncology, 2022).
Where two headings read alike, the source gives them in different places.

Legend:
134 cancer cell lines = assay: Cell viability assay (ATPlite, 72 hours), IC50 on cancer cell line panel
AP-1060 (ETV6-NTRK3) = assay: Cell viability assay; details: read-out: IC50 in cell proliferation assay

Which results are given for `Cc1cc(Nc2ncnc3ccc(NC4=NC(C)(C)CO4)cc23)ccc1Oc1ccn2ncnc2c1` [tucatinib]?
IC50 (134 cancer cell lines; Homo sapiens, MV4-11, read-out: IC50 in cell proliferation assay, MV4-11 cell line (FLT3 ITD)): 19.1 µM; IC50 (134 cancer cell lines; Homo sapiens, MeWo, read-out: IC50 in cell proliferation assay, MeWo cell line): > 31.6 µM; IC50 (134 cancer cell lines; Homo sapiens, NCCIT, read-out: IC50 in cell proliferation assay, NCC-IT cell line): > 31.6 µM; IC50 (134 cancer cell lines; Homo sapiens, NCI-H82, read-out: IC50 in cell proliferation assay, cell line NCI-H82): 20.4 µM; IC50 (134 cancer cell lines; Homo sapiens, NCI-H460, read-out: IC50 in cell proliferation assay, NCI-H460 cell line): 30.4 µM; IC50 (134 cancer cell lines; Homo sapiens, NCI-H661, read-out: IC50 in cell proliferation assay, NCI-H661 cell line): 26.9 µM; IC50 (134 cancer cell lines; Homo sapiens, NCI-H716, read-out: IC50 in cell proliferation assay, cell line NCI-H716 (FGFR2-COL14A1)): 29.5 µM; IC50 (134 cancer cell lines; Homo sapiens, NCI-H1650, read-out: IC50 in cell proliferation assay, NCI-H1650 cell line (EGFR exon19del)): > 31.6 µM; IC50 (134 cancer cell lines; Homo sapiens, NCI-H1975, read-out: IC50 in cell proliferation assay, NCI-H1975 cell line (EGFR p.L858R + p.T790M)): 24.5 µM; IC50 (134 cancer cell lines; Homo sapiens, NCI-H2228, read-out: IC50 in cell proliferation assay, NCI-H2228 cell line (EML4-ALK)): > 31.6 µM; IC50 (134 cancer cell lines; Homo sapiens, OVCAR-3, read-out: IC50 in cell proliferation assay, cell line OVCAR-3): > 31.6 µM; IC50 (134 cancer cell lines; Homo sapiens, PFSK-1, read-out: IC50 in cell proliferation assay, cell line PFSK-1): 19 µM; IC50 (134 cancer cell lines; Homo sapiens, RL95-2, read-out: IC50 in cell proliferation assay, cell line RL95-2 (EGFR p.A289V)): 1.76 µM; IC50 (134 cancer cell lines; Homo sapiens, RPMI-7951, read-out: IC50 in cell proliferation assay, cell line RPMI-7951 (BRAF p.V600E)): 15.8 µM; IC50 (134 cancer cell lines; Homo sapiens, RS4-11, read-out: IC50 in cell proliferation assay, cell line RS4;11): 24.4 µM; IC50 (134 cancer cell lines; Homo sapiens, Rec1, read-out: IC50 in cell proliferation assay, cell line REC-1): 12 µM; IC50 (134 cancer cell lines; Homo sapiens, SHP77, read-out: IC50 in cell proliferation assay, cell line SHP-77): 22.8 µM; IC50 (134 cancer cell lines; Homo sapiens, SK-BR-3, read-out: IC50 in cell proliferation assay, cell line SK-BR-3 (ERBB2 amplification)): 0.022 µM; IC50 (134 cancer cell lines; Homo sapiens, SK-N-AS, read-out: IC50 in cell proliferation assay, cell line SK-N-AS): 25.2 µM; IC50 (134 cancer cell lines; Homo sapiens, SK-N-FI, read-out: IC50 in cell proliferation assay, cell line SK-N-FI): > 31.6 µM; IC50 (134 cancer cell lines; Homo sapiens, SK-N-MC, read-out: IC50 in cell proliferation assay, cell line SK-N-MC): 15.1 µM; IC50 (134 cancer cell lines; Homo sapiens, SK-N-SH, read-out: IC50 in cell proliferation assay, cell line SK-N-SH (ALK p.F1174L)): 24.9 µM; IC50 (134 cancer cell lines; Homo sapiens, SNU-5, read-out: IC50 in cell proliferation assay, cell line SNU-5 (MET amplification)): 24.6 µM; IC50 (134 cancer cell lines; Homo sapiens, SNU-16, read-out: IC50 in cell proliferation assay, cell line SNU-16 (FGFR2 amplification)): 20.5 µM; IC50 (134 cancer cell lines; Homo sapiens, SNU-C2B, read-out: IC50 in cell proliferation assay, cell line SNU-C2B (EGFR p.R165Q)): > 31.6 µM; IC50 (134 cancer cell lines; Homo sapiens, SU-DHL-1, read-out: IC50 in cell proliferation assay, cell line SU-DHL-1 (NPM1-ALK)): 15.7 µM; IC50 (134 cancer cell lines; Homo sapiens, SU-DHL-6, read-out: IC50 in cell proliferation assay, cell line SU-DHL-6): 15.3 µM; IC50 (134 cancer cell lines; Homo sapiens, SUP-T1, read-out: IC50 in cell proliferation assay, cell line SUP-T1): > 31.6 µM; IC50 (134 cancer cell lines; Homo sapiens, SW48, read-out: IC50 in cell proliferation assay, cell line SW48 (EGFR p.G719S)): 17.4 µM; IC50 (134 cancer cell lines; Homo sapiens, SW480, read-out: IC50 in cell proliferation assay, cell line SW480): > 31.6 µM; IC50 (134 cancer cell lines; Homo sapiens, SW626, read-out: IC50 in cell proliferation assay, cell line SW626): 23.5 µM; IC50 (134 cancer cell lines; Homo sapiens, SW780, read-out: IC50 in cell proliferation assay, cell line SW780 (FGFR3-BAIAP2L1)): 22.7 µM; IC50 (134 cancer cell lines; Homo sapiens, SW837, read-out: IC50 in cell proliferation assay, cell line SW837): > 31.6 µM; IC50 (134 cancer cell lines; Homo sapiens, SW872, read-out: IC50 in cell proliferation assay, cell line SW872 (BRAF p.V600E)): 31.4 µM; IC50 (134 cancer cell lines; Homo sapiens, SW900, read-out: IC50 in cell proliferation assay, cell line SW900): > 31.6 µM; IC50 (134 cancer cell lines; Homo sapiens, SW948, read-out: IC50 in cell proliferation assay, cell line SW948): > 31.6 µM; IC50 (134 cancer cell lines; Homo sapiens, SW982, read-out: IC50 in cell proliferation assay, cell line SW982 (BRAF p.V600E)): > 31.6 µM; IC50 (134 cancer cell lines; Homo sapiens, SW-620, read-out: IC50 in cell proliferation assay, cell line SW620): > 31.6 µM; IC50 (134 cancer cell lines; Homo sapiens, T98G, read-out: IC50 in cell proliferation assay, cell line T98G): 30.1 µM; IC50 (134 cancer cell lines; Homo sapiens, TCC-SUP, read-out: IC50 in cell proliferation assay, cell line TCCSUP): 30.4 µM; IC50 (134 cancer cell lines; Homo sapiens, THP-1, read-out: IC50 in cell proliferation assay, cell line THP-1): > 31.6 µM; IC50 (134 cancer cell lines; Homo sapiens, U2OS, read-out: IC50 in cell proliferation assay, cell line U2OS): 22.1 µM; IC50 (134 cancer cell lines; Homo sapiens, U-87 MG, read-out: IC50 in cell proliferation assay, cell line U-87MG ATCC): > 31.6 µM; IC50 (134 cancer cell lines; Homo sapiens, U-118-MG, read-out: IC50 in cell proliferation assay, cell line U-118MG): 25 µM; IC50 (134 cancer cell lines; Homo sapiens, UMUC3, read-out: IC50 in cell proliferation assay, cell line UM-UC-3): 8.4 µM; IC50 (134 cancer cell lines; Hs766T, read-out: IC50 in cell proliferation assay, Hs 766T cell line): > 31.6 µM; IC50 (134 cancer cell lines; L-82, read-out: IC50 in cell proliferation assay, L-82 cell line (NPM1-ALK)): > 31.6 µM; IC50 (134 cancer cell lines; Rh30, read-out: IC50 in cell proliferation assay, cell line Rh30): 25.8 µM; IC50 (134 cancer cell lines; read-out: IC50 in cell proliferation assay, 11-18 cell line (EGFR p.L858R)): 0.825 µM; IC50 (134 cancer cell lines; read-out: IC50 in cell proliferation assay, Hs 852.T cell line): > 31.6 µM; IC50 (134 cancer cell lines; read-out: IC50 in cell proliferation assay, JAR cell line): 24.1 µM; IC50 (134 cancer cell lines; read-out: IC50 in cell proliferation assay, cell line 5637): 8.88 µM; IC50 (134 cancer cell lines; read-out: IC50 in cell proliferation assay, cell line A-388): 15.9 µM; IC50 (134 cancer cell lines; read-out: IC50 in cell proliferation assay, cell line DB): 19.2 µM; IC50 (134 cancer cell lines; read-out: IC50 in cell proliferation assay, cell line DEL (NPM1-ALK)): > 31.6 µM; IC50 (134 cancer cell lines; read-out: IC50 in cell proliferation assay, cell line ES-2 (BRAF p.V600E)): 18.4 µM; IC50 (134 cancer cell lines; read-out: IC50 in cell proliferation assay, cell line PA-1): 21.1 µM; IC50 (134 cancer cell lines; read-out: IC50 in cell proliferation assay, cell line PC-3): 26.8 µM; IC50 (134 cancer cell lines; read-out: IC50 in cell proliferation assay, cell line RD): 28.8 µM; IC50 (134 cancer cell lines; read-out: IC50 in cell proliferation assay, cell line RKO (BRAF p.V600E)): 13.1 µM; IC50 (134 cancer cell lines; read-out: IC50 in cell proliferation assay, cell line RL): 24 µM; IC50 (134 cancer cell lines; read-out: IC50 in cell proliferation assay, cell line RT-4 (FGFR3-TACC3)): 9.99 µM; IC50 (134 cancer cell lines; read-out: IC50 in cell proliferation assay, cell line SR (NPM1-ALK)): 16.8 µM; IC50 (134 cancer cell lines; read-out: IC50 in cell proliferation assay, cell line T24): 20.1 µM; IC50 (134 cancer cell lines; read-out: IC50 in cell proliferation assay, cell line TT (RET p.C634W)): > 31.6 µM; IC50 (134 cancer cell lines; read-out: IC50 in cell proliferation assay, cell line VA-ES-BJ): 25.9 µM; IC50 (AP-1060 (ETV6-NTRK3)): 29.1 µM
